Reference: paper PMC4300089, “Structure-Guided Design of Selective Epac1 and Epac2 Agonists” (PLoS Biology, 2015)

Target: T1, Epac2^Δ280 (Mus musculus, UniProt Q9EQZ6)
T1 construct: made in house
T1 sequence (Q9EQZ6 281-993 isoform Q9EQZ6-3): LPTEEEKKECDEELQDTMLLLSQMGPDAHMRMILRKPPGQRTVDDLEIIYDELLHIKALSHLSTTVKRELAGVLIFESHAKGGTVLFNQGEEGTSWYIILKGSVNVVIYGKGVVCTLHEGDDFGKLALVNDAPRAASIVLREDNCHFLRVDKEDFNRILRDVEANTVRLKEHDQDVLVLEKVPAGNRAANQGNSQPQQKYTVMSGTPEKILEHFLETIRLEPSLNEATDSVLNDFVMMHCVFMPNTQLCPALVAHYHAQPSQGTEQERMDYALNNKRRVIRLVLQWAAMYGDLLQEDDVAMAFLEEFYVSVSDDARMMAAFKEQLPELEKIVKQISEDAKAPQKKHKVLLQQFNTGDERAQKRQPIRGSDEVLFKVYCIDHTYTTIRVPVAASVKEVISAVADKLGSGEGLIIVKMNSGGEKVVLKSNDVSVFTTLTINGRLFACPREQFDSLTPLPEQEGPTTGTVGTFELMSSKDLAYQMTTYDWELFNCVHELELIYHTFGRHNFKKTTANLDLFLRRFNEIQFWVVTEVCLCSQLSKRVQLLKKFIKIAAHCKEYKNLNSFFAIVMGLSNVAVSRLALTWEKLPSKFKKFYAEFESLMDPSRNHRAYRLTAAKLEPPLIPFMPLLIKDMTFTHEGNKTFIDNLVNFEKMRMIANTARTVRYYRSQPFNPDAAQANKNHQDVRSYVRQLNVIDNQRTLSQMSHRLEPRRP
Assay: Epac activation assay (Rap1B•mGDP fluorescence nucleotide exchange), Epac2^Δ280
Type: biochemical
Settings: for AC50 / Rel. kmax: Epac2^Δ280; for Rel. kmax: maximal activity relative to cAMP
Procedure: Murine Epac2 was used as all previous structural studies were performed with it.
The activity of Epac was determined by a fluorescence assay. […] The fluorescence intensity of Rap1B•mGDP is approximately twice that of free mGDP, and thus, nucleotide exchange can be observed as a decay in fluorescence upon the addition of excess unlabeled GDP.

| Molecule | AC50 [nM] | Rel. kmax | activation (Epac2) |
| --- | --- | --- | --- |
| O=P1(O)OC[C@H]2O[C@@H](n3cnc4c(Nc5ccccc5)ncnc43)[C@H](O)[C@@H]2O1 [N-003, N^6-Phe-cAMP] | 300 | 0.6 |  |
| Sp-8-ADOA-cAMPS [S-060] | 6200 | 2.1 |  |
| NCCNc1nc2c(N)ncnc2n1[C@@H]1O[C@@H]2COP(=O)(O)O[C@H]2[C@H]1O [L-006, 8-AEA-cAMP] | 1600 | 0.5 |  |
| Nc1ncnc2c1nc(Cl)n2[C@@H]1O[C@@H]2COP(=O)(O)O[C@H]2[C@H]1Cl [D-006, 8,2′-DCl-cAMP] | 14000 | 0.7 |  |
| Nc1ncnc2c1nc(Br)n2[C@H]1C[C@@H]2O[P@@](O)(=S)OC[C@H]2O1 [S-011, Sp-8-Br-2′dcAMPS] | 9000 | 0.8 |  |
| [N-]=[N+]=Nc1nc2c(N)ncnc2n1[C@@H]1O[C@@H]2COP(=O)(O)O[C@H]2[C@H]1O [L-004, 8-N3-cAMP] | 200 | 0.7 |  |
| CN(C)c1nc2c(N)ncnc2n1[C@@H]1O[C@@H]2CO[P@](O)(=S)O[C@H]2[C@H]1O [S-070, Sp-8-DMeA-cAMPS] | 2100 | 9.3 |  |
| Nc1ncnc2c1nc(OCc1ccccc1)n2[C@@H]1O[C@@H]2COP(=O)(O)O[C@H]2[C@H]1O [L-023, 8-BnO-cAMP] | 1300 | 1.6 |  |
| CNc1nc2c(N)ncnc2n1[C@@H]1O[C@@H]2CO[P@](O)(=S)O[C@H]2[C@H]1OC [S-034, Sp-8-MeA-2′-O-Me-cAMPS] | 20000 | 0.7 |  |
| Nc1ncnc2c1nc(NCCO)n2[C@@H]1O[C@@H]2COP(=O)(O)O[C@H]2[C@H]1O [L-007, 8-OHEA-cAMP] | 2600 | 1.0 |  |
| CC(C)Nc1nc2c(N)ncnc2n1[C@@H]1O[C@@H]2CO[P@](O)(=S)O[C@H]2[C@H]1O [S-050, Sp-8-iPrA-cAMPS] | 9000 | 1.4 |  |
| Nc1ncnc2c1nc(SCc1ccccc1)n2[C@@H]1O[C@@H]2COP(=O)(O)O[C@H]2[C@H]1F [D-011, 8-BnT-2′-F-cAMP] | 2900 | 1.6 |  |
| C[Se]c1nc2c(N)ncnc2n1[C@@H]1O[C@@H]2COP(=O)(O)O[C@H]2[C@H]1O [L-027, 8-MeSe-cAMP] | 180 | 1.5 |  |
| CSc1nc2c(N)ncnc2n1[C@@H]1O[C@@H]2CO[P@](O)(=S)O[C@H]2[C@H]1O [S-160, Sp-8-MeT-cAMPS] | 300 | 7.4 |  |
| Nc1ncnc2c1nc(SCc1ccc(Cl)cc1)n2[C@@H]1O[C@@H]2CO[P@](O)(=S)O[C@H]2[C@H]1O [S-260, Sp-8-pCBnT-cAMPS] | 80 | 4.3 |  |
| Nc1ncnc2c1nc(SCc1cccc([N+](=O)[O-])c1)n2[C@@H]1O[C@@H]2CO[P@](O)(=S)O[C@H]2[C@H]1O [S-290, Sp-8-mNBnT-cAMPS] | 160 | 4.3 |  |
| Nc1ncnc2c1ncn2[C@@H]1O[C@@H]2COP(O)(=S)O[C@H]2[C@H]1O (stereo partly drawn) [R-000, Rp-cAMPS] | 10000 | 0.2 |  |
| Sp-8-PIA-cAMPS [S-120] | 14000 | 2.3 |  |
| CCNc1nc2c(N)ncnc2n1[C@@H]1O[C@@H]2CO[P@](O)(=S)O[C@H]2[C@H]1O [S-040, Sp-8-EA-cAMPS] | 1900 | 5.4 |  |
| CC(C)N(C)c1nc2c(N)ncnc2n1[C@@H]1O[C@@H]2CO[P@](O)(=S)O[C@H]2[C@H]1O [S-100, Sp-8-iPrMeA-cAMPS] | 7000 | 4.5 |  |
| Nc1ncnc2c1nc(Sc1ccc(O)cc1)n2[C@@H]1O[C@@H]2CO[P@](O)(=S)O[C@H]2[C@H]1O [S-200, Sp-8-pOHPT-cAMPS] | 70 | 1.2 |  |
| CC(C)(C)c1ccc(CSc2nc3c(N)ncnc3n2[C@@H]2O[C@@H]3CO[P@](O)(=S)O[C@H]3[C@H]2O)cc1 [S-240, Sp-8-ptBuBnT-cAMPS] | 100 | 5.0 |  |
| Nc1ncnc2c1nc(SCc1ccc(F)cc1)n2[C@@H]1O[C@@H]2CO[P@](O)(=S)O[C@H]2[C@H]1O [S-280, Sp-8-pFBnT-cAMPS] | 110 | 4.9 |  |
| O=C(Nc1ncnc2c1ncn2[C@@H]1O[C@@H]2COP(=O)(O)O[C@H]2[C@H]1O)c1ccccc1 [N-002, N^6-Bnz-cAMP] | 2900 | 0.1 | inability to activate Epac2 |
| CCCO[C@@H]1[C@@H]2OP(=O)(O)OC[C@H]2O[C@H]1n1cnc2c(N)ncnc21 [Z-005, 2′-O-Pr-cAMP] | 70000 | 0.5 |  |

| Molecule | AC50 [nM] | Rel. kmax | activation (Epac2) |
| --- | --- | --- | --- |
| C[C@H](O)CNc1nc2c(N)ncnc2n1[C@@H]1O[C@@H]2COP(=O)(O)O[C@H]2[C@H]1O [L-012, 8-(S-2-OHPrA)-cAMP] | 8000 | 0.5 |  |
| COc1ccc(CSc2nc3c(N)ncnc3n2[C@@H]2O[C@@H]3CO[P@](O)(=S)O[C@H]3[C@H]2O)cc1 [S-250, Sp-8-pMeOBnT-cAMPS] | 110 | 5.4 |  |
| CCN(CC)c1nc2c(N)ncnc2n1[C@@H]1O[C@@H]2COP(=O)(O)O[C@H]2[C@H]1O [L-016, 8-DEA-cAMP] | 9000 | 5.1 |  |
| CSc1nc2c(N)ncnc2n1[C@@H]1O[C@@H]2COP(=O)(O)O[C@H]2[C@H]1O [L-024, 8-MeT-cAMP] | 140 | 2.0 |  |
| CO[C@@H]1[C@@H]2O[P@@](O)(=S)OC[C@H]2O[C@H]1n1c(Sc2ccc(O)cc2)nc2c(N)ncnc21 [S-202, Sp-8-pOHPT-2′-O-Me-cAMPS] | 1600 | 1.4 |  |
| Nc1ncnc2c1nc(N1CCCCC1)n2[C@@H]1O[C@@H]2CO[P@](O)(=S)O[C@H]2[C@H]1O [S-110, Sp-8-PIP-cAMPS] | 9500 | 3.7 |  |
| Nc1ncnc2c1nc(N1CCCC1)n2[C@@H]1O[C@@H]2COP(=O)(O)O[C@H]2[C@H]1O [L-017, 8-Pyr-cAMP] | 3900 | 4.4 |  |
| CO[C@@H]1[C@@H]2O[P@@](O)(=S)OC[C@H]2O[C@H]1n1c(SC)nc2c(N)ncnc21 [S-180, Sp-8-MeT-2′-O-Me-cAMPS] | 3700 | 3.2 |  |
| C=CCNc1nc2c(N)ncnc2n1[C@@H]1O[C@@H]2COP(=O)(O)O[C@H]2[C@H]1O [L-011, 8-AllA-cAMP] | 1900 | 1.5 |  |
| COc1nc2c(N)ncnc2n1[C@@H]1O[C@@H]2COP(=O)(O)O[C@H]2[C@H]1O [L-022, 8-MeO-cAMP] | 600 | 2.0 |  |
| C=CCO[C@@H]1[C@@H]2OP(=O)(O)OC[C@H]2O[C@H]1n1cnc2c(N)ncnc21 [Z-007, 2′-O-All-cAMP] | 70000 | 1.0 |  |
| CNc1nc2c(N)ncnc2n1[C@@H]1O[C@@H]2CO[P@](O)(=S)O[C@H]2[C@H]1F [S-032, Sp-8-MeA-2′-F-cAMPS] | 9500 | 3.9 |  |
| Nc1ncnc2c1nc(Cl)n2[C@@H]1O[C@@H]2COP(O)(=S)O[C@@H]2C1O (stereo partly drawn) [S-020, Sp-8-Cl-cAMPS] | 400 | 3.8 |  |
| CO[C@@H]1[C@@H]2OP(=O)(O)OC[C@H]2O[C@H]1n1c([Se]Cc2ccccc2)nc2c(N)ncnc21 [D-013, 8-BnSe-2′-O-Me-cAMP] | 3600 | 2.3 |  |
| Nc1ncnc2c1nc([Se]Cc1ccccc1)n2[C@@H]1O[C@@H]2COP(=O)(O)O[C@H]2[C@H]1O [L-028, 8-BnSe-cAMP] | 30 | 1.7 |  |
| CO[C@@H]1[C@@H]2OP(=O)(O)OC[C@H]2O[C@H]1n1c(O)nc2c(N)ncnc21 [D-010, 8-OH-2′-O-Me-cAMP] | 6800 | 0.5 |  |
| Nc1ncnc2c1nc(N)n2[C@@H]1O[C@@H]2COP(=O)(O)O[C@H]2[C@H]1O [L-003, 8-NH2-cAMP] | 200 | 0.7 |  |
| CCCCO[C@@H]1[C@@H]2OP(=O)(O)OC[C@H]2O[C@H]1n1cnc2c(N)ncnc21 [Z-006, 2′-O-Bu-cAMP] | 120000 | 1.0 |  |
| Nc1ncnc2c1nc(Sc1ccc(O)cc1)n2[C@@H]1O[C@@H]2CO[P@](O)(=S)O[C@H]2[C@H]1F [S-201, Sp-8-pOHPT-2′-F-cAMPS] | 1600 | 1.0 |  |
| CCN(CC)c1nc2c(N)ncnc2n1[C@@H]1O[C@@H]2CO[P@](O)(=S)O[C@H]2[C@H]1O [S-090, Sp-8-DEA-cAMPS] | 10000 | 4.1 |  |
| O=P1(O)OCC2OC(n3cnc4c(NCc5ccccc5)ncnc43)C(O)C2O1 (stereo not drawn) [N-001, N^6-Bn-cAMP] | 1100 | 0.3 |  |
| CCN(C)c1nc2c(N)ncnc2n1[C@@H]1O[C@@H]2CO[P@](O)(=S)O[C@H]2[C@H]1O [S-080, Sp-8-EMeA-cAMPS] | 1800 | 7.6 |  |
| NCCCCCCNc1nc2c(N)ncnc2n1[C@@H]1O[C@@H]2COP(=O)(O)O[C@H]2[C@H]1O [L-010, 8-AHA-cAMP] | 1200 | 1.8 |  |
| CN(C)c1nc2c(N)ncnc2n1[C@@H]1O[C@@H]2COP(=O)(O)O[C@H]2[C@H]1O [L-015, 8-DMeA-cAMP] | 1400 | 3.6 |  |
